System: KRAS patient-derived spheroids with HUVEC/MSC, viability
Assay: Anticancer human tumor 941728-121-R-J1-PDC patient-derived lung adenocarcinoma cell line growth inhibition [KRAS2]
Details: for IC50: curve of first compound; for viability, T/C: stronger effect = lower value
Outline: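 KRAS-mutant tumor cells were grown as spheroids with HUVEC endothelial cells and human MSCs as stroma. Targeted agents were tested alone and with KRAS pathway inhibitors. Doses started at or near clinical Cmax, or 10 microM, descending half-log.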

[1] = second compound 0.1 µM, first compound 0.0316 µM
[2] = second compound 0.1 µM, first compound 0.1 µM
[3] = second compound 0.1 µM, first compound 0.316 µM
[4] = second compound 0.1 µM, first compound 1 µM
[5] = second compound 0.1 µM, first compound 3.16 µM
[6] = second compound 0.316 µM, first compound 0.0316 µM
[7] = second compound 0.316 µM, first compound 0.1 µM
[8] = second compound 0.316 µM, first compound 0.316 µM
[9] = second compound 0.316 µM, first compound 1 µM
[10] = second compound 0.316 µM, first compound 3.16 µM
[11] = second compound 1 µM, first compound 0.0316 µM
[12] = second compound 1 µM, first compound 0.1 µM
[13] = second compound 1 µM, first compound 0.316 µM
[14] = second compound 1 µM, first compound 1 µM
[15] = second compound 1 µM, first compound 3.16 µM
[16] = second compound 3.16 µM, first compound 0.0316 µM
[17] = second compound 3.16 µM, first compound 0.1 µM
[18] = second compound 3.16 µM, first compound 0.316 µM
[19] = second compound 3.16 µM, first compound 1 µM
[20] = second compound 3.16 µM, first compound 3.16 µM
[21] = second compound 10 µM, first compound 0.0316 µM
[22] = second compound 10 µM, first compound 0.1 µM
[23] = second compound 10 µM, first compound 0.316 µM
[24] = second compound 10 µM, first compound 1 µM
[25] = second compound 10 µM, first compound 3.16 µM
[26] = second compound 0.1 µM, first compound 10 µM
[27] = second compound 0.316 µM, first compound 10 µM
[28] = second compound 1 µM, first compound 10 µM
[29] = second compound 3.16 µM, first compound 10 µM
[30] = second compound 10 µM, first compound 10 µM
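Also: spheroids exposed to agents for seven days before readout.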

SMILES | IC50 (second compound 0.1 µM) [nM] | IC50 (second compound 0.316 µM) [nM] | IC50 (second compound 1 µM) [nM] | IC50 (second compound 3.16 µM) [nM] | IC50 (second compound 10 µM) [nM] | viability, T/C [1] [%] | viability, T/C [2] [%] | viability, T/C [3] [%] | viability, T/C [4] [%] | viability, T/C [5] [%] | viability, T/C [6] [%] | viability, T/C [7] [%] | viability, T/C [8] [%] | viability, T/C [9] [%] | viability, T/C [10] [%] | viability, T/C [11] [%] | viability, T/C [12] [%] | viability, T/C [13] [%] | viability, T/C [14] [%] | viability, T/C [15] [%] | other results
CC1COCCN1c1cc(-c2ccnn2C)c2ccnc(-c3ccn[nH]3)c2n1 (stereo not given) + COc1cc2nc(C)nc(NC(C)c3cc(N)cc(C(F)(F)F)c3)c2cc1OC1CCOC1 | 25.8 | 30.7 | 14.5 | < 10 | < 10 | 49.5 | 39.9 | 33.9 | 26.8 | 20.3 | 49.5 | 36.8 | 27.2 | 21.9 | 23.6 | 42.7 | 32.9 | 27.9 | 22.5 | 18.6 | viability, T/C (second compound 0.1 µM, first compound 0.01 µM): 56%; viability, T/C (second compound 0.316 µM, first compound 0.01 µM): 58.2%; viability, T/C (second compound 1 µM, first compound 0.01 µM): 53.6%; viability, T/C (second compound 3.16 µM, first compound 0.01 µM): 36.3%; viability, T/C [16]: 32%; viability, T/C [17]: 25.4%; viability, T/C [18]: 18.2%; viability, T/C [19]: 8.31%; viability, T/C [20]: 15.9%; viability, T/C (second compound 10 µM, first compound 0.01 µM): 17.4%; viability, T/C [21]: 21.6%; viability, T/C [22]: 21.9%; viability, T/C [23]: 11.4%; viability, T/C [24]: 9.32%; viability, T/C [25]: 6.09%
CC1OCC2(CCN(c3cnc(Sc4ccnc(N)c4Cl)c(N)n3)CC2)C1N (stereo not given) + COc1cc2nc(C)nc(NC(C)c3cc(N)cc(C(F)(F)F)c3)c2cc1OC1CCOC1 | < 31.6 | < 31.6 | < 31.6 | < 31.6 | < 31.6 | 49.4 | 43.1 | 38.4 | 36.1 | 39 | 47.2 | 41.4 | 34.1 | 35.7 | 37 | 48 | 43.8 | 35 | 36.2 | 32.3 | viability, T/C [26]: 34.5%; viability, T/C [27]: 39.7%; viability, T/C [28]: 29.9%; viability, T/C [16]: 43.6%; viability, T/C [17]: 39%; viability, T/C [18]: 35.3%; viability, T/C [19]: 33.4%; viability, T/C [20]: 29.5%; viability, T/C [29]: 26.6%; viability, T/C [21]: 30%; viability, T/C [22]: 21.2%; viability, T/C [23]: 13.1%; viability, T/C [24]: 13.3%; viability, T/C [25]: 11.6%; viability, T/C [30]: 5.88%
Cn1nccc1Nc1nccc(-c2cc3c(s2)C(C)(C)N(CCN2CCOCC2)C3=O)n1 + COc1cc2nc(C)nc(NC(C)c3cc(N)cc(C(F)(F)F)c3)c2cc1OC1CCOC1 | 116 | 145 | 58.6 | < 31.6 | < 31.6 | 60.1 | 52.7 | 43.7 | 39.5 | 39.2 | 64.1 | 55.3 | 38.9 | 38.6 | 39.1 | 55.9 | 44.3 | 41.1 | 37.5 | 38.4 | viability, T/C [26]: 37.8%; viability, T/C [27]: 33.9%; viability, T/C [28]: 35.1%; viability, T/C [16]: 46.5%; viability, T/C [17]: 46.7%; viability, T/C [18]: 40.5%; viability, T/C [19]: 40.6%; viability, T/C [20]: 36.3%; viability, T/C [29]: 31.5%; viability, T/C [21]: 30.7%; viability, T/C [22]: 30.2%; viability, T/C [23]: 22.4%; viability, T/C [24]: 20.4%; viability, T/C [25]: 15%; viability, T/C [30]: 11.2%

Reference: PubChem BioAssay AID1963862 (Molecular Pharmacology Branch, DTP, NCI, 2024)
